Experiment: Antagonist activity at human CCR2 in PBMCs assessed as inhibition of chemotaxis

SMILES	IC50 [nM]
NS(=O)(=O)c1ccc(C(=O)N[C@@H]2CCCC[C@@H]2NC(=O)CNC(=O)c2cccc(C(F)(F)F)c2)cc1	130
O=C(CNC(=O)c1cccc(C(F)(F)F)c1)N[C@H]1CCCC[C@H]1NC(=O)c1ccc(I)cc1	160
CSc1ccc(C(=O)N[C@@H]2CCCC[C@@H]2NC(=O)CNC(=O)c2cccc(C(F)(F)F)c2)cc1	1200

Further compounds by falling IC50, results first:

IC50 [nM]	SMILES
63	Nc1ccc(C(F)(F)F)cc1C(=O)NCC(=O)N[C@H]1CCCC[C@H]1NC(=O)c1ccc(S(N)(=O)=O)cc1
0.5	NS(=O)(=O)c1ccc(C(=O)N[C@@H]2CCCC[C@@H]2NC(=O)CNC(=O)c2cc(C(F)(F)F)ccc2NC(=O)C2CCCCC2)cc1

From BindingDB's records for doi:10.1021/jm701488f (2008)
